Data: PubChem BioAssay AID328 (DTP/NCI, 2004)
Several values for one entry are separate records, joined by “and”; a condition that tells them apart may be missing. Identical values can stand only once. Inconclusive results and toxic doses are left out.

System: BDF1 mice, P388 leukemia ip, median survival T/C
Assay: NCI In Vivo Anticancer Drug Screen. Data for tumor model P388 Leukemia (intraperitoneal) in B6D2F1 (BDF1) mice
Settings: endpoint: median survival time, higher = longer survival
How it was run: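 Reported as T/C, where T is the survival measurement in dosed animals and C the same measurement in vehicle controls.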

[1] = dose: 100.0 mg/kg/injection, schedule: Q04DX003 (ip), vehicle: saline with Tween-80
[2] = dose: 200.0 mg/kg/injection, schedule: Q04DX003 (ip), vehicle: saline with Tween-80
[3] = dose: 400.0 mg/kg/injection, schedule: Q04DX003 (ip), vehicle: saline with Tween-80
[4] = dose: 50.0 mg/kg/injection, schedule: Q01DX009 (ip), vehicle: saline with Tween-80
[5] = dose: 100.0 mg/kg/injection, schedule: Q01DX009 (ip), vehicle: saline with Tween-80
[6] = dose: 100.0 mg/kg/injection, schedule: Q01DX009 (ip), vehicle: Klucel (hydroxypropylcellulose) (HPC)
[7] = dose: 100.0 mg/kg/injection, schedule: Q04DX003 (ip), vehicle: Klucel (hydroxypropylcellulose) (HPC)
[8] = dose: 200.0 mg/kg/injection, schedule: Q04DX003 (ip), vehicle: Klucel (hydroxypropylcellulose) (HPC)
[9] = dose: 400.0 mg/kg/injection, schedule: Q04DX003 (ip), vehicle: Klucel (hydroxypropylcellulose) (HPC)
[10] = dose: 200.0 mg/kg/injection, schedule: Q01DX009 (ip), vehicle: saline with Tween-80
[11] = dose: 400.0 mg/kg/injection, schedule: Q01DX009 (ip), vehicle: saline with Tween-80
[12] = dose: 50.0 mg/kg/injection, schedule: Q01DX009 (ip), vehicle: saline
[13] = dose: 100.0 mg/kg/injection, schedule: Q01DX009 (ip), vehicle: saline
[14] = dose: 100.0 mg/kg/injection, schedule: Q04DX003 (ip), vehicle: saline
[15] = dose: 200.0 mg/kg/injection, schedule: Q01DX009 (ip), vehicle: saline
[16] = dose: 200.0 mg/kg/injection, schedule: Q04DX003 (ip), vehicle: saline
[17] = dose: 400.0 mg/kg/injection, schedule: Q04DX003 (ip), vehicle: saline
[18] = dose: 100.0 mg/kg/injection, schedule: Q01DX009 (ip), vehicle: other
[19] = dose: 100.0 mg/kg/injection, schedule: Q04DX003 (ip), vehicle: other
[20] = dose: 200.0 mg/kg/injection, schedule: Q04DX003 (ip), vehicle: other
[21] = dose: 400.0 mg/kg/injection, schedule: Q04DX003 (ip), vehicle: other
[22] = dose: 25.0 mg/kg/injection, schedule: Q01DX009 (ip), vehicle: Klucel (hydroxypropylcellulose) (HPC)
[23] = dose: 50.0 mg/kg/injection, schedule: Q01DX009 (ip), vehicle: Klucel (hydroxypropylcellulose) (HPC)
[24] = dose: 400.0 mg/kg/injection, schedule: Q01DX009 (ip), vehicle: saline

SMILES: COc1cc2cc(c1Cl)N(C)C(=O)CC(OC(=O)C(C)N(C)C(=O)C(C)C)C1(C)OC1C(C)C1CC(O)(NC(=O)O1)C(OC)/C=C/C=C(C)C2 (stereo unspecified)
- T/C (dose: 0.2 micrograms/kg/injection, schedule: Q01DX009 (ip), vehicle: saline + alcohol): 165 % of control
- T/C (dose: 0.4 micrograms/kg/injection, schedule: Q01DX009 (ip), vehicle: saline + alcohol): 155 % of control
- T/C (dose: 0.8 micrograms/kg/injection, schedule: Q01DX009 (ip), vehicle: saline + alcohol): 190 % of control
- T/C (dose: 1.6 micrograms/kg/injection, schedule: Q01DX009 (ip), vehicle: saline + alcohol): 155 % of control
- T/C (dose: 6.2 micrograms/kg/injection, schedule: Q01DX009 (ip), vehicle: saline + alcohol): 155 % of control
- T/C (dose: 12.5 micrograms/kg/injection, schedule: Q01DX009 (ip), vehicle: saline + alcohol): 120 % of control

SMILES: NC(=S)c1ccncc1
- T/C [1]: 86 % of control
- T/C [2]: 86 % of control
- T/C [3]: 90 % of control

SMILES: CCCCOCN(COCCCC)c1ccccc1Cl
- T/C [4]: 116 % of control
- T/C [5]: 107 % of control and 121 % of control

SMILES: CCOC(=O)CC(=Nc1ccccc1OC)C(=O)OCC
- T/C [6]: 86 % of control
- T/C [7]: 104 % of control
- T/C (dose: 200.0 mg/kg/injection, schedule: Q01DX009 (ip), vehicle: Klucel (hydroxypropylcellulose) (HPC)): 86 % of control
- T/C [8]: 95 % of control
- T/C (dose: 400.0 mg/kg/injection, schedule: Q01DX009 (ip), vehicle: Klucel (hydroxypropylcellulose) (HPC)): 104 % of control
- T/C [9]: 95 % of control

SMILES: CC(C)C(=O)c1ccc([N+](=O)[O-])o1
- T/C [4]: 115 % of control
- T/C [5]: 111 % of control
- T/C [1]: 107 % of control
- T/C [10]: 109 % of control
- T/C [2]: 116 % of control
- T/C [11]: 107 % of control
- T/C [3]: 109 % of control

SMILES: CC1=NC(C(=O)O)C(=O)O1 (stereo unspecified)
- T/C [12]: 109 % of control
- T/C [13]: 104 % of control
- T/C [14]: 95 % of control
- T/C [15]: 100 % of control
- T/C [16]: 100 % of control
- T/C [17]: 87 % of control

SMILES: CN1C2Oc3ccccc3C1Oc1ccccc12
- T/C [4]: 112 % of control
- T/C [5]: 99 % of control
- T/C [10]: 99 % of control

SMILES: c1cc(NC2CCCCC2)ccc1CN1CCOCC1
- T/C (dose: 50.0 mg/kg/injection, schedule: Q01DX009 (ip), vehicle: other): 102 % of control and 109 % of control
- T/C [18]: 116 % of control

SMILES: N#Cc1cccc(O)c1
- T/C [4]: 104 % of control
- T/C [5]: 100 % of control
- T/C [10]: 109 % of control

SMILES: Cc1n[nH]c(=O)c2c3ccccc3nn12
- T/C (dose: 100.0 mg/kg/injection, schedule: Q04DX002 (ip), vehicle: saline with Tween-80): 103 % of control
- T/C (dose: 200.0 mg/kg/injection, schedule: Q04DX002 (ip), vehicle: saline with Tween-80): 110 % of control
- T/C (dose: 400.0 mg/kg/injection, schedule: Q04DX002 (ip), vehicle: saline with Tween-80): 107 % of control

SMILES: COC(=O)C(CCC1CCCCN1)(c1ccccc1)c1ccccc1 (stereo unspecified)
- T/C (dose: 66.0 mg/kg/injection, schedule: Q04DX003 (ip), vehicle: saline with Tween-80): 123 % of control
- T/C [13]: 90 % of control

SMILES: Cn1c([N+](=O)[O-])cnc1CSc1nc(-c2ccccc2)no1
- T/C [1]: 93 % of control
- T/C [2]: 117 % of control
- T/C [3]: 93 % of control

SMILES: O=C(CC(O)(C(F)(F)F)C(F)(F)F)c1ccc(Br)cc1
- T/C [18]: 91 % of control
- T/C [19]: 120 % of control
- T/C (dose: 200.0 mg/kg/injection, schedule: Q01DX009 (ip), vehicle: other): 91 % of control
- T/C [20]: 110 % of control
- T/C (dose: 400.0 mg/kg/injection, schedule: Q01DX009 (ip), vehicle: other): 91 % of control
- T/C [21]: 120 % of control

SMILES: CC1(CCC(=O)/C=C/c2ccccc2)CCC/C(=C/c2ccccc2)C1=O (stereo unspecified)
- T/C (dose: 12.5 mg/kg/injection, schedule: Q01DX009 (ip), vehicle: Klucel (hydroxypropylcellulose) (HPC)): 110 % of control
- T/C [22]: 115 % of control
- T/C [23]: 110 % of control
- T/C (dose: 75.0 mg/kg/injection, schedule: Q01DX009 (ip), vehicle: Klucel (hydroxypropylcellulose) (HPC)): 100 % of control
- T/C (dose: 115.0 mg/kg/injection, schedule: Q01DX009 (ip), vehicle: Klucel (hydroxypropylcellulose) (HPC)): 100 % of control
- T/C (dose: 170.0 mg/kg/injection, schedule: Q01DX009 (ip), vehicle: Klucel (hydroxypropylcellulose) (HPC)): 95 % of control

SMILES: CN(C)N=Nc1cn(C2OC(CO)C(O)C2O)c(=O)[nH]c1=O (stereo unspecified)
- T/C (dose: 9.0 mg/kg/injection, schedule: Q01DX009 (ip), vehicle: saline): 115 % of control
- T/C (dose: 18.0 mg/kg/injection, schedule: Q01DX009 (ip), vehicle: saline): 110 % of control
- T/C (dose: 25.0 mg/kg/injection, schedule: Q01DX009 (ip), vehicle: saline): 100 % of control
- T/C (dose: 37.5 mg/kg/injection, schedule: Q01DX009 (ip), vehicle: saline): 300 % of control and 120 % of control
- T/C [12]: 120 % of control
- T/C (dose: 75.0 mg/kg/injection, schedule: Q01DX009 (ip), vehicle: saline): 300 % of control and 150 % of control
- T/C (dose: 150.0 mg/kg/injection, schedule: Q01DX009 (ip), vehicle: saline): 300 % of control and 180 % of control
- T/C [24]: 150 % of control

SMILES: O=C(c1ccccc1)C(Br)c1ccc([N+](=O)[O-])cc1 (stereo unspecified)
- T/C [7]: 100 % of control
- T/C [8]: 90 % of control
- T/C [9]: 100 % of control

SMILES: COc1cc2c(cc1OC)C(=O)N(C)CC2
- T/C [12]: 105 % of control
- T/C (dose: 100.0 mg/kg/injection, schedule: Q01DX009 (ip), vehicle: water): 97 % of control
- T/C [15]: 119 % of control

SMILES: Cc1nc2n[nH]c(N)c2nc1C
- T/C [13]: 100 % of control
- T/C [15]: 100 % of control
- T/C [24]: 91 % of control

SMILES: O=P(CCCl)(OCCCl)N1CCCCC1 (stereo unspecified)
- T/C (dose: 50.0 mg/kg/injection, schedule: Q04DX003 (ip), vehicle: saline): 104 % of control
- T/C [13]: 104 % of control
- T/C [14]: 108 % of control
- T/C [15]: 104 % of control
- T/C [24]: 109 % of control

SMILES: C=C1CCC2C1C1C(C(C)C)CCC21C (stereo unspecified)
- T/C [4]: 105 % of control
- T/C [5]: 104 % of control

SMILES: CN(C)C=O.CN(C)C=O.[Cl][Sn]([Cl])([Cl])[Cl]
- T/C [22]: 100 % of control
- T/C [23]: 105 % of control
- T/C (dose: 75.0 mg/kg/injection, schedule: Q04DX003 (ip), vehicle: Klucel (hydroxypropylcellulose) (HPC)): 109 % of control
- T/C [6]: 100 % of control
- T/C (dose: 150.0 mg/kg/injection, schedule: Q04DX003 (ip), vehicle: Klucel (hydroxypropylcellulose) (HPC)): 86 % of control

SMILES: CCCCN(C)/N=N/c1[nH]ncc1C(=O)OCC
- T/C [19]: 116 % of control
- T/C [20]: 108 % of control
- T/C [21]: 100 % of control

SMILES: CCCN(/C=C/C=C/C=[N+](CCC)CCC)CCC
- T/C (dose: 0.03 mg/kg/injection, schedule: Q01DX009 (ip), vehicle: saline): 99 % of control
- T/C (dose: 0.05 mg/kg/injection, schedule: Q01DX009 (ip), vehicle: saline): 104 % of control
- T/C (dose: 0.1 mg/kg/injection, schedule: Q01DX009 (ip), vehicle: saline): 106 % of control

SMILES: COc1ccc(C2CCc3cc4c(cc3/C2=N/O)OCO4)cc1OC (stereo unspecified)
- T/C [5]: 104 % of control
- T/C [1]: 100 % of control
- T/C [10]: 104 % of control
- T/C [2]: 100 % of control
- T/C [11]: 95 % of control
- T/C [3]: 90 % of control

SMILES: O=[N+]([O-])C(CO)(CO)CO
- T/C [14]: 95 % of control
- T/C [16]: 100 % of control
- T/C [17]: 100 % of control

SMILES: ClC12CC3CC(CC(C3)C1)C2
- T/C (dose: 50.0 mg/kg/injection, schedule: Q04DX003 (ip), vehicle: acetone): 104 % of control
- T/C (dose: 100.0 mg/kg/injection, schedule: Q04DX003 (ip), vehicle: acetone): 113 % of control
- T/C (dose: 200.0 mg/kg/injection, schedule: Q04DX003 (ip), vehicle: acetone): 109 % of control

SMILES: Nc1ccc2c(-c3ccc([N+](=O)[O-])cc3)cc(=O)[nH]c2n1
- T/C [16]: 100 % of control
- T/C [17]: 97 % of control

SMILES: Ic1ccc(N=Cc2cccs2)cc1
- T/C [4]: 117 % of control
- T/C [5]: 99 % of control
- T/C [10]: 97 % of control
- T/C [11]: 108 % of control
